Results on 8 compounds are retold here after ChEMBL document CHEMBL1142604, “Chamazulene carboxylic acid and matricin: a natural profen and its natural prodrug, identified through similarity to synthetic drug substances” (J Nat Prod, 2006).

The subject of data set [1] is Rattus norvegicus. Kind of data set: Antiinflammatory activity in rat assessed as inhibition of carrageenan-induced right paw edema at 300 mg/kg after 1 hr. It is filed as functional. A general note: The carrageenan paw model is a standard test of acute inflammation.
Data set [2] has as its system Rattus norvegicus. Kind of data set: Antiinflammatory activity in rat assessed as inhibition of carrageenan-induced right paw edema at 600 mg/kg after 1 hr. The data set is classed as functional.
The test system of data set [3] is Rattus norvegicus. Nature of the data set: Antiinflammatory activity in rat assessed as inhibition of carrageenan-induced right paw edema at 600 mg/kg after 3 hrs. The data set is classed as functional.
Data set [4] can be described thus: Plasma concentration in human at 300 mg, po after 25 hrs. It is filed as ADME, organism-based.
Data set [5] is described as follows: Cmax in human at 500 mg, po. It is filed as ADME, organism-based. The following applies: in vivo. More on the design: dose 500 mg, route oral.
The test system of data set [6] is Mus musculus. Nature of the data set: Antiinflammatory activity in mouse assessed as inhibition of phorbol […]-induced ear lobe edema at 1 umol/ear after 24 hrs. The data set is classed as functional.
In data set [7] the test system is Mus musculus. Nature of the data set: Antiinflammatory activity in mouse assessed as inhibition of phorbol […]-induced ear lobe edema at 0.1 umol/ear after 48 hrs relative to control. It is filed as functional.
Data set [8] concerns Homo sapiens. Nature of the data set: Plasma concentration in human at 500 mg, po after 75 to 90 mins. It is filed as ADME, organism-based. The following applies: in vivo.
The nature of data set [9]: Elimination half life in human at 500 mg, po. The settings on record: in vivo, read-out: beta t1/2 (converted). The data set is classed as ADME, organism-based.
In data set [10] the test system is Mus musculus. Nature of the data set: Antiinflammatory activity in mouse assessed as inhibition of phorbol […]-induced ear lobe edema. Set-up: scale not given: the % may be the effect or the level left. The data set is classed as functional.
In data set [11] the test system is Mus musculus. Nature of the data set: Antiinflammatory activity in mouse assessed as inhibition of phorbol […]-induced ear lobe edema at 1 umol/ear after 48 hrs relative to control. The data set is classed as functional.
The target of data set [12] is T1, Prostaglandin G/H synthase 1 (Ovis aries) (UniProt P05979).
T1 sequence (whole entry): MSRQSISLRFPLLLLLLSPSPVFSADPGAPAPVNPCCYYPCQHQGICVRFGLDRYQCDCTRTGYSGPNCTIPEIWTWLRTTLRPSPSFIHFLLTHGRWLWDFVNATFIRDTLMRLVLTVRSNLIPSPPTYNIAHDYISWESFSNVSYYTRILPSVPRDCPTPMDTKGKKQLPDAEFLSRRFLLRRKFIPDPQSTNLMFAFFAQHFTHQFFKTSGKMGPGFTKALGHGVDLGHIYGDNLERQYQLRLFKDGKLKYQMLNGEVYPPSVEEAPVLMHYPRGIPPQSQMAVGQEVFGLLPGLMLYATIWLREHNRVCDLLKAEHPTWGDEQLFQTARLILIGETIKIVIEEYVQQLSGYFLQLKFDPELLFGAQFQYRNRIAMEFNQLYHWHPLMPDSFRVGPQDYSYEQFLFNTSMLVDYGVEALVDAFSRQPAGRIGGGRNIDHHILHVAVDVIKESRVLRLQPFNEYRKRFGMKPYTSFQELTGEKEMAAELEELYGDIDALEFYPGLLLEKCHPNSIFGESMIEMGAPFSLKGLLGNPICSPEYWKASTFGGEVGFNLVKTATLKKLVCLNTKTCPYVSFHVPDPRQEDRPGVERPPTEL
Kind of data set: Inhibition of ram COX1 at 50 uM.

A short description of data set [13]: Tmax in human at 500 mg, po. The data set is classed as ADME, organism-based. The settings on record: in vivo.
Data set [14] is described as follows: Dissociation constant, pKa of the compound. It is filed as physicochemical.
For data set [15], the system named is Homo sapiens. Nature of the data set: Volume of distribution in human at 500 mg, po. It is filed as ADME, organism-based. The following applies: in vivo.
For data set [16], the system named is Homo sapiens. Kind of data set: Absorption coefficient, Ka in human at 500 mg, po. It is filed as ADME, organism-based. The settings on record: in vivo.
For data set [17], the species on record is Homo sapiens. Nature of the data set: Plasma concentration in human by HPLC assay. It is filed as ADME, organism-based. The settings on record: in vivo.
For data set [18], the system named is Mus musculus. Kind of data set: Antiinflammatory activity in mouse assessed as inhibition of phorbol […]-induced ear lobe edema at 1 umol/ear after 6 hrs relative to control. The data set is classed as functional.
The nature of data set [19]: AUC (0 to infinity) in human at 500 mg, po. Set-up: dose 500 mg, time infinity, route oral. The settings on record: plasma. It is filed as ADME, organism-based.
A short description of data set [20]: Plasma concentration in human at 300 mg, po after 5 hrs. The data set is classed as ADME, organism-based.
The nature of data set [21]: Elimination constant, beta in human at 500 mg, po. It is filed as ADME, organism-based. The following applies: in vivo.
The nature of data set [22]: Lipophilicity, log D at pH 7.4. It is filed as physicochemical. The following applies: buffer.
A short description of data set [23]: Reduction in prostaglandin metabolite level in human urine at 500 mg, po. The data set is classed as ADME. More on the design: scale not given: the % may be the effect or the level left. The settings on record: in vivo.
Data set [24] deals with Mus musculus. Nature of the data set: Antiinflammatory activity in mouse assessed as inhibition of phorbol […]-induced ear lobe edema at 0.1 umol/ear after 6 hrs relative to control. It is filed as functional.
The subject of data set [25] is Mus musculus. Nature of the data set: Antiinflammatory activity in mouse assessed as inhibition of phorbol […]-induced ear lobe edema at 0.1 umol/ear after 24 hrs relative to control. It is filed as functional.
The nature of data set [26]: Plasma concentration in human at 300 mg, po after 2.5 hrs. It is filed as ADME, organism-based.
A short description of data set [27]: Metabolic stability in artificial gastric fluid assessed as transformation to chamazulene carboxylic acid after 60 mins. The settings on record: simulated gi fluid, 1 h. The data set is classed as physicochemical.

Broadly, the inhibition in vivo is the percentage by which the read-out fell short of the control. In general, Cmax refers to the peak of the concentration-time curve. The term inhibition denotes the percentage by which the read-out fell short of the control. The term Tmax denotes the time from dosing to the highest level. What is called pKa is the pH at which an ionisable group is half protonated. A word on the AUC(0-inf): it is total exposure, with the tail of the curve extrapolated. A word on the logD: it is the decadic logarithm of the distribution of all forms, ionised or not, between an organic phase and buffer at a given pH.

Each structure is given as a SMILES string.

On to `Cc1ccc([C@H](C)C(=O)OCOC(=O)C(C)(C)C)cc2c(C)ccc1-2`, for which, in the data set with Rattus norvegicus [1], the inhibition in vivo at 300 mg/kg was 34.8%.

Turning to `COC(=O)[C@@H](C)c1ccc(C)c2ccc(C)c-2c1`, the inhibition in vivo at 300 mg/kg with Rattus norvegicus [1] was 22.8%.

As for `CC(=O)Oc1ccccc1C(=O)O` [ASPIRIN], the inhibition in vivo at 600 mg/kg with Rattus norvegicus [2] worked out at 92.4%; in the data set on Rattus norvegicus [3], 77.3%.

In turn, `Cc1ccc([C@H](C)C(=O)O)cc2c(C)ccc1-2` [CHAMAZULENE CARBOXYLIC ACID] registered a concentration at 25 h in data set [4] of 2900 ng/mL. Besides, the maximum concentration (Cmax) in data set [5] was 900 ng/mL. Further, the “inhibition (INH)” value in the data set with Mus musculus [6] amounted to 14%; in the data set on Mus musculus [7], 35%; in the data set with Mus musculus [11], 24%; in the data set with Mus musculus [18], 38%; in the data set on Mus musculus [24], 12%; in the data set with Mus musculus [25], 19%. Further, the values for the Cp in the data set on Homo sapiens [8] and in the data set filed under Homo sapiens [17] were 900 ng/mL and 100 ng/mL, respectively. In addition, the half-life in [9] is 4 h. Further, the values for the Activity (in the data set on Mus musculus [10]; in data set [23]) were 23% and 40%, respectively. Further, the inhibition in data set [12] is 17.4%. The Tmax in [13] amounted to 1.25 h. Moreover, in [14], the pKa came out at 4.14. Moreover, in the data set on Homo sapiens [15], the Vd was 133 L. Further, the Ka in the data set on Homo sapiens [16] is 0.53 h⁻¹. The compound further registered an AUC(0-inf) in data set [19] of 14700 ng·h/mL. Besides, the concentration at 5 h in [20] worked out at 2400 ng/mL. The compound also had a k el in data set [21] of 4.72e-05 s⁻¹. In data set [22], this compound had a logD of 0.79. Moreover, the inhibition in vivo at 300 mg/kg in the data set with Rattus norvegicus [1] was found to be 17.4%. In addition, in data set [26], the concentration at 2.5 h came out at 1700 ng/mL.

In the case of `CC(C)Cc1ccc([C@H](C)C(=O)O)cc1` [DEXIBUPROFEN], the logD in data set [22] was found to be 1.07.

`CC(C(=O)O)c1ccc(-c2ccccc2)c(F)c1` (stereo not drawn) [FLURBIPROFEN]: in data set [14], the pKa is 4.6. For the same compound, in data set [22], the logD is 0.85.

Take `CC(=O)O[C@H]1CC(C)=C2C=C[C@@](C)(O)[C@@H]2[C@H]2OC(=O)[C@@H](C)[C@@H]21` [MATRICIN]: the Stability entry in data set [27] was “Stable”.

In the case of `COc1ccc2cc([C@H](C)C(=O)O)ccc2c1` [NAPROXEN], the “inhibition (INH)” value was 18% in the data set with Mus musculus [7]; 25% in the data set with Mus musculus [11]; 45% in the data set with Mus musculus [18]; 28% in the data set on Mus musculus [24]; 21% in the data set on Mus musculus [25]. In addition, in the data set with Mus musculus [10], the Activity was 59%.
